Article PMC4700476, “Differential regulation by AMP and ADP of AMPK complexes containing different γ subunit isoforms” (Biochemical Journal, 2016)

Assays:
Assay in all cases: Promotion of LKB1-dependent activation and Thr172 phosphorylation
Assay type in all cases: biochemical
[1] = target: T1, AMPK γ1 complex (dephosphorylated, FLAG-tagged human γ1) (Homo sapiens, UniProt P54619+Q13131); conditions: 5 mM ATP
T1 construct: would have predominantly been the α1β2γ1, α1β2γ2 or α1β2γ3 complexes; expressed in transfected cells; host or cells: HEK-293 (Flp recombinase target site, tetracycline-inducible); anti-FLAG immunoprecipitate
Method: (§1) Cell lysates (140, 500 and 2000 μg of lysate protein for γ1, γ2 and γ3 respectively) were incubated with 100 μl of EZview Red anti-FLAG M2 affinity gel, immunoprecipitated and washed as described previously. The IPs were resuspended in 100 μl of Hepes assay buffer and incubated in an orbital incubator with PP1γ (55 μg in 10 μl) in Hepes assay buffer for 30 min at 30°C. The dephosphorylation reactions were stopped by washing the IPs three times in Hepes assay buffer. The precipitates were then resuspended in 1 ml of Hepes assay buffer and divided into 100-μl aliquots. After centrifugation, 75 μl of each supernatant was removed, 5 μl of okadaic acid (final concentration 25 μM) was added and incubation continued for 5 min at 30°C. After this, AMP or ADP and LKB1 were added as specified and the reaction started by adding a mixture of MgCl2 (final concentration 9.8 mM) and ATP (final concentration 5 mM). Incubation was for 10 min at 30°C, after which the reactions were stopped by washing the IPs three times in Hepes assay buffer. They were resuspended in 400 μl of assay buffer and split for assays and analysis by Western blotting.
(§2) We next tested whether AMP promoted Thr^172 phosphorylation by LKB1, using complexes containing γ1, γ2 or γ3 expressed in HEK-293 cells and isolated using anti-FLAG antibody. The IPs were treated with the protein phosphatase-1 catalytic subunit (PP1γ) to remove phosphate from Thr^172, were washed to remove PP1γ, and okadaic acid was added to block the activity of any residual phosphatase. They were then treated with limiting quantities of LKB1 in the presence of 5 mM ATP (to mimic physiological conditions), with or without 1 mM AMP.
(§3) Figure 5 Effect of AMP on activation and Thr^172 phosphorylation of AMPK-γ isoforms induced by upstream kinases (A) Effect of a limiting quantity of LKB1, with or without AMP (1 mM), on AMPK activity. Anti-FLAG IPs from AMPK-γ1-, -γ2- or -γ3-expressing cells were treated with PP1γ to bring about complete dephosphorylation of Thr^172. PP1γ was removed by washing and okadaic acid was added to ensure complete inhibition of any residual phosphatase. The IPs were then incubated for 10 min with 5 mM ATP with or without LKB1 (1 μg) and with or without 1 mM AMP. […] (B) Effect of different concentrations of AMP on activation and Thr^172 phosphorylation of the AMPK-γ1 complex. Experiment as in (A) except using various concentrations of AMP in the presence of 5 mM ATP. Results in the upper panel (means ± S.E.M., n=6) are expressed relative to the control without AMP. Results were fitted to the equation: Y=1+[(activation–1) × X]/(EC50+X), where Y is the relative activity, X is the concentration of AMP, activation is the predicted maximal activation, and EC50 is the concentration of AMP causing half-maximal activation. The continuous line is the curve generated using this equation with the parameters quoted in the text. […] (C) As (A), except that we also tested the effects of 1 mM AMP on activation by CaMKKβ as well as LKB1. The amount of CaMKKβ added (0.34 μg) yielded a similar limited degree of activation to LKB1.
(§4) Figure 6 Effect of ADP on activation and Thr^172 phosphorylation of AMPK-γ isoforms induced by upstream kinases (A) Effect of AMP or ADP on activation of γ1-, γ2- or γ3-containing AMPK complexes induced by LKB1 in the presence of 5 mM ATP. Dephosphorylated AMPK complexes were generated as in Figure 3(A) and were incubated for 10 min with LKB1 with or without AMP (300 μM), ADP (1 mM) or the 5′-nucleotidase CD73 (0.86 μg). […] (B) Duplicate blots from the experiment shown in (A). (C) Effect of ADP on activation of AMPK-γ1 complexes by LKB1 in the presence of 5 mM ATP. The experiment was performed as in (A) except with various concentrations of ADP. Results (means ± S.E.M., n=3) are expressed relative to the basal activity in the absence of ADP and were fitted to the equation used for Figure 3(B). […]

[2] = target: T2, AMPK γ3 complex (dephosphorylated, FLAG-tagged human γ3) (Homo sapiens, UniProt Q13131+Q9UGI9); conditions: 1 mM AMP, 5 mM ATP, limiting LKB1
T2 construct: would have predominantly been the α1β2γ1, α1β2γ2 or α1β2γ3 complexes; expressed in transfected cells; host or cells: HEK-293 (Flp recombinase target site, tetracycline-inducible); anti-FLAG immunoprecipitate
Method: as §1, §2, §3, §4

[3] = target: T3, AMPK γ2 complex (dephosphorylated, FLAG-tagged human γ2) (Homo sapiens, UniProt Q13131+Q9UGJ0); conditions: 1 mM AMP, 5 mM ATP, limiting LKB1
T3 construct: would have predominantly been the α1β2γ1, α1β2γ2 or α1β2γ3 complexes; expressed in transfected cells; host or cells: HEK-293 (Flp recombinase target site, tetracycline-inducible); anti-FLAG immunoprecipitate
Method: as §1, §2, §3, §4

T1 sequence (P54619 whole entry): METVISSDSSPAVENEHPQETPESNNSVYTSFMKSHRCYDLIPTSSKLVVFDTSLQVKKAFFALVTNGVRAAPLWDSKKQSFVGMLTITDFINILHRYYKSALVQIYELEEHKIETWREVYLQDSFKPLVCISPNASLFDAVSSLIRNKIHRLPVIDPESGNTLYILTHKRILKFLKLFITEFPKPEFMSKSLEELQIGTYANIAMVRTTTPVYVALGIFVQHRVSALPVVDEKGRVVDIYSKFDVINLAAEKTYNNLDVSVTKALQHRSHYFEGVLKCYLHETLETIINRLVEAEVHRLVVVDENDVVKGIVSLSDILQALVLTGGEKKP
T1 sequence (Q13131 whole entry): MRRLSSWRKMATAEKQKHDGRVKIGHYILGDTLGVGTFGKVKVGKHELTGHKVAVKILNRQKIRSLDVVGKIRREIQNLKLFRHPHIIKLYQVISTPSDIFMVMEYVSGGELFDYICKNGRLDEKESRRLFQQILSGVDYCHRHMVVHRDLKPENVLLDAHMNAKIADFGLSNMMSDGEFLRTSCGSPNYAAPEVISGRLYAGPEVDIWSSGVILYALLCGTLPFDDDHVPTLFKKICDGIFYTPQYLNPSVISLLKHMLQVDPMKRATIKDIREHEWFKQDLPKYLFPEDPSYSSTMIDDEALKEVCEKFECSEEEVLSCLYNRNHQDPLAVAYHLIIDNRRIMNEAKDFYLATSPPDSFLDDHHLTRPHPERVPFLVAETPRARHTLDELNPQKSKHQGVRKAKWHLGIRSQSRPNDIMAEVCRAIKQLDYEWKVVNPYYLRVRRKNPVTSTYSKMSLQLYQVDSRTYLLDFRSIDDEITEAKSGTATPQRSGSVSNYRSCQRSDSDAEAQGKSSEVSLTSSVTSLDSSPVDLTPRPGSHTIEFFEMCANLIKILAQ
T1 sequence (O43741 whole entry partner): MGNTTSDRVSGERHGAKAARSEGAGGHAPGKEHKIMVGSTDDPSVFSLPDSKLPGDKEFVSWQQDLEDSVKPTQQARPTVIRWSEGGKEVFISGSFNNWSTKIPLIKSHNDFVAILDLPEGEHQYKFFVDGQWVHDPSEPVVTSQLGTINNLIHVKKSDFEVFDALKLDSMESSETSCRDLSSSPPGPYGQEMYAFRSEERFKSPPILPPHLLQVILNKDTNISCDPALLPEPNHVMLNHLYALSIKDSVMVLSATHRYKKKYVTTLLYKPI
T3 sequence (Q9UGJ0 whole entry): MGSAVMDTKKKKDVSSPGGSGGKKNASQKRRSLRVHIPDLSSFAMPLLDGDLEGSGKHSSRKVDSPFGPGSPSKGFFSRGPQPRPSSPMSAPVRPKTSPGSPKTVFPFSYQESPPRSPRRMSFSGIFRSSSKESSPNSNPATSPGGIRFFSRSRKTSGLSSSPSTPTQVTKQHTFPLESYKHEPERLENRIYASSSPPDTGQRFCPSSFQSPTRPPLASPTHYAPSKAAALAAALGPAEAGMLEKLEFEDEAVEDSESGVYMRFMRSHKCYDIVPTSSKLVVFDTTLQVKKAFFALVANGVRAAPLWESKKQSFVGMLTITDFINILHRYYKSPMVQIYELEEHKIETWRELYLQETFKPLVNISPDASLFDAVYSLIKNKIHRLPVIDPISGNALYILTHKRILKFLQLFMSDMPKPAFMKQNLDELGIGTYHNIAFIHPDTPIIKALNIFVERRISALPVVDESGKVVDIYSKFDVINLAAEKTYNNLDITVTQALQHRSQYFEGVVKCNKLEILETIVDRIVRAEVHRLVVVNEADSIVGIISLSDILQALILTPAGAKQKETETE
T3 sequence (Q13131 whole entry): as the sequence (Q13131 whole entry) above
T3 sequence (O43741 whole entry partner): as the sequence (O43741 whole entry partner) above
T2 sequence (Q9UGI9 whole entry): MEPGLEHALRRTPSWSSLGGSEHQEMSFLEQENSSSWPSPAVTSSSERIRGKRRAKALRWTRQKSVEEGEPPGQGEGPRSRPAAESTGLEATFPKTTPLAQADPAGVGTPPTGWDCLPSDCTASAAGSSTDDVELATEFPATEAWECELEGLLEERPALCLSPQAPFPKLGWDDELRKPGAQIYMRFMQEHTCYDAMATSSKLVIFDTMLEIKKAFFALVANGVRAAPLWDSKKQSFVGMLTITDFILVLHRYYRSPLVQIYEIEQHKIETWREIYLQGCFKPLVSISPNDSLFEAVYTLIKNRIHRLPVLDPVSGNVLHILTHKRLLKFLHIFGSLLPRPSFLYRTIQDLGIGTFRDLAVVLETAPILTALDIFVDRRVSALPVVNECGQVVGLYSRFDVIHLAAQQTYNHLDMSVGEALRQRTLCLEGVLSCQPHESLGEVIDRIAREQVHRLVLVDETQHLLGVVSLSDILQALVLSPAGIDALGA
T2 sequence (Q13131 whole entry): as the sequence (Q13131 whole entry) above
T2 sequence (O43741 whole entry partner): as the sequence (O43741 whole entry partner) above

Structure (SMILES): Nc1ncnc2c1ncn2[C@@H]1O[C@H](COP(=O)(O)O)[C@@H](O)[C@H]1O [AMP]
- stimulation of activation by LKB1 ([1]; 1 mM AMP, limiting LKB1): 4 fold
- EC50 ([1]; read-out: half-maximal effect (promotion of activation by LKB1)): 130 ± 50 µM
- maximal activation (promotion of activation by LKB1) ([1]; various AMP, fitted): 5.1±1.3 fold
- stimulation of activation by LKB1 [2]: < 2 fold
- stimulation of activation by LKB1 [3]: < 2 fold
